Paper PMC10901353, “Identification of a potent and selective LAPTc inhibitor by RapidFire-Mass Spectrometry, with antichagasic activity” (PLOS Neglected Tropical Diseases, 2024)

Tested on: PfA-M17 (M17 LAP from Plasmodium falciparum)
Experiment: not given
Settings: cited from earlier work

Point of comparison: `CC(C)C[C@H](NC(=O)[C@@H](O)[C@H](N)Cc1ccccc1)C(=O)O` [bestatin, reference compound], Ki 25 nM. Against it:
- CC(C)(C)C(=O)NC(C(=O)NO)c1ccc(-c2cc(F)c(F)c(F)c2)cc1 (stereo not drawn) [Compound 10o] — 2.4-fold higher, 60 nM
- CC(C)(C)C(=O)NC(C(=O)NO)c1ccc(-n2cccn2)cc1 (stereo not drawn) [Compound 13d] — within 1.5-fold, 28 nM
- CC(C)C[C@@H](NC(=O)[C@H](O)[C@@H](N)Cc1ccc([N+](=O)[O-])cc1)C(=O)O [nitrobestatin] — 9.3-fold lower, 2.7 nM

Target: LAPTc (acidic M17 leucyl-aminopeptidase from T. cruzi) (Trypanosoma cruzi, UniProt V5BWE3)
Sequence (V5BWE3 entry or part of it): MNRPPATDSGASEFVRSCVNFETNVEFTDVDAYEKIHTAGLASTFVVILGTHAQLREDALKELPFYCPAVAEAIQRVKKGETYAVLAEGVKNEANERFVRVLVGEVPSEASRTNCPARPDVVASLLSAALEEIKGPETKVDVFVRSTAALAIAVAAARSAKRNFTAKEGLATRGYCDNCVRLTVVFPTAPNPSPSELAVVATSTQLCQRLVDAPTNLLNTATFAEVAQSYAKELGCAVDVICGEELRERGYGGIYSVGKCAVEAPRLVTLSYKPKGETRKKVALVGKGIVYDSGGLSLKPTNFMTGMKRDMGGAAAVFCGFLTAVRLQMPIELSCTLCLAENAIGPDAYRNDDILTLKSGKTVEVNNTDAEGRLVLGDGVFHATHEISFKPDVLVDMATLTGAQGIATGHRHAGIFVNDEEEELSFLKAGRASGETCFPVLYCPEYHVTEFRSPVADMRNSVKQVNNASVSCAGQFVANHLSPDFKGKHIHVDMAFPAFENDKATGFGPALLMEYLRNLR
Experiment: Dose-response studies for LAPTc inhibition by RapidFire-MS
Format: biochemical
Settings: average of four independent replicates; read-out: pIC50 +/- StDev (LAPTc) (converted)
Experimental: This assay was previously described. The assay was performed in 384-well clear F-bottom polypropylene plates with a final reaction volume of 15 μL. The reaction mixture contained 7.5 μL LAPTc in 50 mM Tris-HCl, pH 7.5, 0.005% NP-40 and 7.5 μL LSTVIVR peptide substrate (Cambridge Research Biochemicals, Billingham, UK) in the same buffer was added to start the reaction. The reaction was performed at room temperature for 40 min and then stopped with 85 μL 1% formic acid containing 0.15 mg/mL STVIVR* internal standard (Cambridge Research Biochemicals, Billingham, UK).
To generate half-maximum inhibitory concentration (IC50) data for LAPTc, 10-point dose-response curves with 100 μM as highest concentration and 1:2 dilution in DMSO (0.195–100 μM range) were prepared in 384 well plates. All other experimental conditions were as described above. All IC50 curve fitting was performed by four-parameter logistic dose-response curve fit using ActivityBase XE (IDBS). At least three replicates were generated for each hit compound.

`CC(C)C[C@H](NC(=O)[C@@H](O)[C@H](N)Cc1ccccc1)C(=O)O` [bestatin, reference compound] gave an IC50 of 240 nM.

Tested on: intracellular T. cruzi amastigotes
Experiment: not given
Set-up: method as in PMID 30001347
Settings: reported previously in this assay ref 33; cited from earlier work

Point of comparison: `O=C(Cn1ccnc1[N+](=O)[O-])NCc1ccccc1` [benznidazole], EC50 2000 nM. Against it:
- CC1CS(=O)(=O)CCN1/N=C/c1ccc([N+](=O)[O-])o1 (stereo not drawn) [nifurtimox] — 2.5-fold lower, 800 nM

Point of comparison: `CC1CS(=O)(=O)CCN1/N=C/c1ccc([N+](=O)[O-])o1` (stereo not drawn) [nifurtimox], “pEC50 (T. cruzi)” value 6.1. Against it:
- O=C(Cn1ccnc1[N+](=O)[O-])NCc1ccccc1 [benznidazole] — lower, 5.7
